Patent US9896471B2, “Salt of 1-(2-deoxy-2-fluoro-4-thio-β-D-arabinofuranosyl)cytosine” (FUJIFILM Corporation, priority 2012, dated 2018)
≈ marks a conversion by molar mass, not a printed value.

Tests used:
[1] = Tableting property test; assay type: physicochemical; details: average of five tabletings; 5 points surface has gloss, 1 point surface is chipped, 0 point tablets stick to pestle; 1000 kgf, 100 mg tablet
Experimental: The obtained powdery sample was compression-molded by using a tableting machine (Tableting Machine HT-P18A, Hata Iron Works, Ltd.; tableting diameter, 6.5 mm; tableting pressure, 1000 kgf; tablet weight, 100 mg) to obtain tablets. The obtained tablets were macroscopically observed, and graded according to the following criteria.
5 Points: Surface has gloss.
4 Points: Surface is slightly roughened.
3 Points: Surface is roughened.
2 Points: Surface is slightly chipped.
1 Point: Surface is chipped.
0 Point: Tablets stick to pestle, and cannot be unstuck.
The tableting was performed five times, and averages of the scores of the tablets were calculated.

[2] = tested on: Capan-1; assay: Antitumor activity: cell proliferation inhibition (ATPlite); assay type: cell-based; details: Capan-1, 3000 cells/well, 3 days culture
Experimental: (§1) Cells at the logarithmic phase were inoculated on a 96-well plate at a density of 1000 cells/well (BxPC-3, MIA PaCa-2) or 3000 cells/well (Capan-1), and cultured overnight at 37° C. in a CO2 incubator. On the next day, serially diluted solutions of each test compound were added, and culture was performed for 3 days in an incubator. After completion of the culture, by using a cell proliferation assay kit ATPlite (Perkin Elmer), and a plate reader Envision (Perkin Elmer), emission was measured. Concentrations of the test compounds providing 50% of cell proliferation inhibition (IC50) were calculated by fitting using a sigmoid function. The solutions of the test compounds were prepared by diluting them with PBS (pH 7.4) at 10 mM, and further diluting the 10 mM solutions with PBS (pH 7.4), and used in the test.

[3] = tested on: MIA PaCa-2; assay: as above; assay type: cell-based; details: MIA PaCa-2, 1000 cells/well, 3 days culture
Experimental: as §1

[4] = tested on: BxPC-3; assay: as above; assay type: cell-based; details: BxPC-3, 1000 cells/well, 3 days culture
Experimental: as §1

[5] = Solubility test in water
Experimental: Each of the test compounds and the comparative compound was added to water, and the mixture was stirred at room temperature for 24 hours. The insoluble matter was removed by filtration using a membrane filter (0.2 μm). The filtrate was analyzed by high performance liquid chromatography (HPLC) to obtain the solubility.

[6] = Flowability test (compaction rate); assay type: physicochemical; details: powder sieved 177 μm mesh; (compacted − loose bulk density)/compacted bulk density × 100
Source text: The obtained powdery sample was roughly filled in a glass measuring cylinder (10 cm^3), the upper surface of the powder layer was horizontally smoothened, and the value of the volume was read. The weight of the powdery sample was divided with the volume to obtain loose bulk density (g/cm^3).
Then, the glass measuring cylinder filled with the powdery sample was tapped by using a general powdery characteristic measuring apparatus (Powdertester Type PT-E, Hosokawa Micron CORP.). When the volume of the powder layer no longer changed, the value of the volume was read. The weight of the powdery sample was divided with the volume to obtain compacted bulk density (g/cm^3).
The compaction rate (%) was obtained in accordance with the following equation. Compaction rate (%)=[(Compacted bulk density−Loose bulk density)/Compacted bulk density]×100

[7] = tested on: tumors; details: orally administered to mice; Non-patent documents 1 and 2; cited from earlier work
[8] = Stability test (deliquescence on storage); assay type: physicochemical; details: stored 2 weeks, open state, 60° C. and 75% relative humidity, macroscopic observation
Experimental: The compounds of Examples 1 and 2 were stored for 2 weeks in an open state under conditions of 60° C. and 75% relative humidity. The test compounds were macroscopically observed after the storage, and presence or absence of deliquescence was examined.

Nc1ccn([C@@H]2S[C@H](CO)[C@@H](O)[C@@H]2F)c(=O)n1 [Comparative compound, 1-(2-deoxy-2-fluoro-4-thio-β-D-arabinofuranosyl)cytosine]
Score (tableting property) [1]: 1.0
IC50 ([2]; Homo sapiens, 72 h): 35 nM
IC50 ([3]; Homo sapiens, 72 h): 382 nM
IC50 ([4]; Homo sapiens, 72 h): 45 nM
solubility at 24 h ([5]; thermodynamic from solid): 2000 µg/mL (≈ 7.65 mM)
Compaction rate [6]: 41%
antitumor activity [7]: potent antitumor activity

Cl.Nc1ccn([C@@H]2S[C@H](CO)[C@@H](O)[C@@H]2F)c(=O)n1 [Example 2, hydrochloride of 1-(2-deoxy-2-fluoro-4-thio-β-D-arabinofuranosyl)cytosine]
Score (tableting property) [1]: 5.0
IC50 [2]: 31 nM
IC50 [3]: 417 nM
IC50 [4]: 41 nM
Compaction rate [6]: 21%
presence or absence of deliquescence [8]: did not deliquesce

CS(=O)(=O)O.Nc1ccn([C@@H]2S[C@H](CO)[C@@H](O)[C@@H]2F)c(=O)n1 [Example 1, methanesulfonate of 1-(2-deoxy-2-fluoro-4-thio-β-D-arabinofuranosyl)cytosine]
Score (tableting property) [1]: 4.5
IC50 [2]: 36 nM
IC50 [3]: 373 nM
IC50 [4]: 45 nM
Solubility in water ([5]; room temperature, stirred 24 hours, 0.2 μm filtration, HPLC): 79000 µg/mL
Compaction rate [6]: 18%
presence or absence of deliquescence [8]: did not deliquesce
